Legend:
Type in all cases: biochemical
[1] = target: Wild-type cruzipain (Trypanosoma cruzi, UniProt P25779); assay: Trypanosoma cruzi cruzipain peptidase activity assay (Ki); details: read-out: Ki, inhibitors of cruzain and cruzipains
In short: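 Native cruzipain from T. cruzi Dm28 epimastigotes, 2.5 nM, in 100 mM sodium phosphate pH 6.75 with 1 mM EDTA and 10 mM L-cysteine, 25 °C, DMSO <1%. Rates taken from continuous fluorogenic substrate read; Ki by regression assuming reversible pure-competitive inhibition.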

[2] = target: T1, Bovine cathepsin S (Bos taurus, UniProt P25326); assay: Cathepsin S peptidase activity assay, bovine enzyme (Ki); details: species of cathepsin S not given; read-out: Ki, inhibitors of cathepsin S
T1 construct: purchased CN Biosciences
T1 sequence (P25326 115-331): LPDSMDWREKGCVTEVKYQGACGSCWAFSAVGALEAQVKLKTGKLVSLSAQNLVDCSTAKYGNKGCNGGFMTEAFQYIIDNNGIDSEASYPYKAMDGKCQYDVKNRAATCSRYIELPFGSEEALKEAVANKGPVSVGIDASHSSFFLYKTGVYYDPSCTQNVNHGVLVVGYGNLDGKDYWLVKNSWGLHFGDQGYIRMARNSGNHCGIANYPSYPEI
Experimental: Unless otherwise stated, all general chemicals and biochemicals were purchased from either the Sigma Chemical Company, Poole, Dorset, U.K or from Fisher Scientific UK, Loughborough, Leicestershire, U.K. Absorbance assays were carried out in flat-bottomed 96-well plates (Spectra; Greiner Bio-One Ltd., Stonehouse, Gloucestershire, U.K.) using a SpectraMax PLUS384 plate reader (Molecular Devices, Crawley, U.K.). Fluorescence high throughput assays were carried out in either 384-well microtitre plates (Corning Costar 3705 plates, Fisher Scientific) or 96-well ‘U’ bottomed Microfluor W1 microtitre plates (Thermo Labsystems, Ashford, Middlesex, U.K.). Fluorescence assays were monitored using a SpectraMax Gemini fluorescence plate reader (Molecular Devices). For substrates employing either a 7-amino-4-methylcoumarin (AMC) or a 7-amino-4-trifluoromethylcoumarin (AFC) fluorophore, assays were monitored at an excitation wavelength of 365 nm and an emission wavelength of 450 nm and the fluorescence plate reader calibrated with AMC. For substrates employing a 3-amino-benzoyl (Abz) fluorophore, assays were monitored at an excitation wavelength of 310 nm and an emission wavelength of 445 nm; the fluorescence plate reader calibrated with 3-amino-benzamide (Fluka). Unless otherwise indicated, all the peptidase substrates were purchased from Bachem UK, St Helens, Merseyside, UK. Substrates utilizing fluorescence resonance energy transfer methodology (i.e. FRET-based substrates) were synthesized at Incenta Limited using published methods (Atherton & Sheppard, Solid Phase Peptide Synthesis, IRL Press, Oxford, U.K, 1989) and employed Abz (2-aminobenzoyl) as the fluorescence donor and 3-nitro-tyrosine [Tyr(NO2)] as the fluorescence quencher (Meldal, M. and Breddam, K., Anal. Biochem, 195, 141-147, 1991). Hydroxyethylpiperazine ethanesulfonate (HEPES), tris-hydroxylmethyl aminomethane (tris) base, bis-tris-propane and all the biological detergents (e.g. CHAPS, zwittergents, etc.) were purchased from CN Biosciences UK, Beeston, Nottinghamshire, U.K. Glycerol was purchased from Amersham Pharmacia Biotech, Little Chalfont, Buckinghamshire, U.K. Stock solutions of substrate or inhibitor were made up to 10 mM in 100% dimethylsulfoxide (DMSO) (Rathburns, Glasgow, U.K.) and diluted as appropriately required. In all cases the DMSO concentration in the assays was maintained at less than 1% (vol./vol.).
Assay protocols were based on literature precedent (Table 4; Barrett, A. J., Rawlings, N. D. and Woessner, J. F., 1998, Handbook of Proteolytic Enzymes, Academic Press, London and references therein) and modified as required to suit local assay protocols. Enzyme was added as required to initiate the reaction and the activity, as judged by the change in fluorescence upon conversion of substrate to product, was monitored over time. All assays were carried out at 25±1° C.
Bovine cathepsin S, human cathepsin L, human cathepsin H and human cathepsin B were obtained from CN Biosciences. Recombinant human cathepsin S, human cathepsin K and human cathepsin X were obtained from Dr. Boris Turk (Josef Stefan Institute, Ljubljana, Slovenia). Unless otherwise stated, all peptidase activity assays were carried out in 10 mM bis-tris-propane (BTP), pH 6.5 containing 1 mM EDTA, 5 mM 2-mercaptoethanol and 1 mM CaCl2. Human cathepsin H activity assays were carried out in 10 mM BTP pH 6.5, 142 mM NaCl2, 1 mM CaCl2, 1 mM EDTA, 1 mM DTT, 0.035 mM Zwittergent 3-16. Human cathepsin K assays were carried out in 100 mM sodium acetate; pH 5.5 containing 20 mM L-cysteine and 1 mM EDTA (Bossard, M. J., et. al., J. Biol. Chem., 21, 12517-12524, 1996). Human cathepsin X assays were carried out in 100 mM sodium acetate; pH 5.5 containing 20 mM L-cysteine; 0.05% (w/v) Brij 35 and 1 mM EDTA (Santamaria, I., et. al., J. Biol. Chem., 273, 16816-16823, 1998; Klemencic, J, et al., Eur. J. Biochem., 267, 5404-5412, 2000).

[3] = target: T2, human cathepsin L (Homo sapiens, UniProt P07711); assay: Cathepsin L peptidase activity assay (Ki); details: read-out: Ki, inhibitors of cathepsin L
T2 construct: purchased CN Biosciences
T2 sequence (P07711 114-333): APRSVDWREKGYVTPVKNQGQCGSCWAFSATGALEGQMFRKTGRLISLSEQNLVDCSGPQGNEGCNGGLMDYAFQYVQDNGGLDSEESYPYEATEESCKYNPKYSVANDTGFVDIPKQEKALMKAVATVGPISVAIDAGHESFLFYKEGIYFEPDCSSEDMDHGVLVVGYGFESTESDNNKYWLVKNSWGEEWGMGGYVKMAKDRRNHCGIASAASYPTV
In short: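 Human cathepsin L at 1 nM with Ac-Phe-Arg-AMC at its KM^app (~20 μM) in 10 mM bis-tris-propane pH 6.5, 1 mM EDTA, 5 mM 2-mercaptoethanol, 1 mM CaCl2, DMSO <1%, 25±1° C. Reaction enzyme-initiated; AMC fluorescence (ex 365/em 450 nm) monitored over time.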

[4] = target: T3, CPB2.8ΔCTE (Leishmania mexicana, UniProt P36400); assay: Leishmania mexicana cysteine protease B (CPB) peptidase activity assay (Ki); details: Ki, inhibitors of Leismania mexicana CPB protease
T3 construct: Wild-type recombinant CPB without the C-terminal extention (i.e. CPB2.8ΔCTE); Dr. Jeremy Mottram (Wellcome Centre for Molecular Parasitology, University of Glasgow)
T3 sequence (P36400 126-343, stated change not applied): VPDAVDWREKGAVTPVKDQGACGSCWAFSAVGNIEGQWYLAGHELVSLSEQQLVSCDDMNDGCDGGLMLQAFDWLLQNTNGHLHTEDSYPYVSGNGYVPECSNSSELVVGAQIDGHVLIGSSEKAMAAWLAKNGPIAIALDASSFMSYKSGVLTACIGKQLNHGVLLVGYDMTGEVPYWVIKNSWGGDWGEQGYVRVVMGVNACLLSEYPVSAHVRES
In short: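 Recombinant CPB2.8ΔCTE (0.25 nM) was assayed in 100 mM sodium acetate pH 5.5 with 1 mM EDTA, 200 mM NaCl and 10 mM DTT at 25 °C, DMSO <1%, enzyme added to start. Rates were taken from continuous fluorescence slopes; apparent Ki was fitted assuming reversible, pure-competitive inhibition.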

[5] = target: T4, human cathepsin B (Homo sapiens, UniProt P07858); assay: Cathepsin B peptidase activity assay (Ki); details: read-out: Ki, inhibitors of cathepsin B
T4 construct: purchased CN Biosciences
In short: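 Buffer: 10 mM bis-tris-propane pH 6.5, 1 mM EDTA, 5 mM 2-mercaptoethanol, 1 mM CaCl2; DMSO <1%. Ki assumed reversible, pure-competitive, from Ki^app=Ki(1+[So]/KM^app) by non-linear regression.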

Wild-type cruzipain, sequence (P25779 whole entry): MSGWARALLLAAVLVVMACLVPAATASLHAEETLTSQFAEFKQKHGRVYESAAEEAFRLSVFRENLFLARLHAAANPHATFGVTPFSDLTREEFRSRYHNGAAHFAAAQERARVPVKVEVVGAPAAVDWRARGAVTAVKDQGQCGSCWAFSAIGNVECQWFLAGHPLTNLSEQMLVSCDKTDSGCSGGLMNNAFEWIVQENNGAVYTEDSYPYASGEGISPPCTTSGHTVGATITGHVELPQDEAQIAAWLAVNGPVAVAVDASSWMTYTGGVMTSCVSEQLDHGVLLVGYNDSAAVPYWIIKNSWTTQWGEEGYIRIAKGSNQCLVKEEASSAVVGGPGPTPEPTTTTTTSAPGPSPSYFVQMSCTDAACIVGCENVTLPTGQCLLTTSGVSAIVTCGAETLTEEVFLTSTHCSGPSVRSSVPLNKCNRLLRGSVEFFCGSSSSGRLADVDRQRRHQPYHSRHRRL

Ki [2] [µM] | Structure (SMILES) | Ki [1] [µM] | Ki [3] [µM] | Ki [4] [µM] | Ki [5] [µM]
< 5 | O=C(N[C@@H](Cc1ccc(O)cc1)C(=O)N1CC[C@@H]2[C@H]1C(=O)CN2C(=O)c1ccccc1)c1cccc(Cl)c1 [Example 334, (3aR,6aS)-N-[(1S)-2-(4-Benzoyl-6-oxo-hexahydro-pyrrolo[3,2-b]pyrrol-1-yl)-1-(4-hydroxy-benzyl)-2-oxo-ethyl]-3-chloro-benzamide] | < 5 | – | – | –
< 5 | CC(C)C[C@H](NC(=O)c1cccc(Br)c1)C(=O)N1CC[C@@H]2[C@H]1C(=O)CN2C(=O)c1ccccc1 [Example 340, (3aR,6aS)-N-[(1S)-1-(4-Benzoyl-6-oxo-hexahydro-pyrrolo[3,2-b]pyrrole-1-carbonyl)-3-methyl-butyl]-3-bromo-benzamide] | – | – | – | –
< 5 | CC(C)C[C@H](NC(=O)c1ccc2ccccc2n1)C(=O)N1CC[C@@H]2[C@H]1C(=O)CN2C(=O)c1ccccc1 [Example 8, (3aR,6aS)-Quinoline-2-carboxylic acid [(1S)-1-(4-benzoyl-6-oxo-hexahydro-pyrrolo[3,2-b]pyrrole-1-carbonyl)-3-methyl-butyl]-amide] | < 5 | < 5 | – | –
< 5 | CS(=O)(=O)c1ccccc1C(=O)N1CC(=O)[C@@H]2[C@H]1CCN2C(=O)[C@H](Cc1ccc(O)cc1)NC(=O)c1cccc(Br)c1 [Example 303, (3aR,6aS)-3-Bromo-N-{(1S)-1-(4-hydroxy-benzyl)-2-[4-(2-methanesulfonyl-benzoyl)-6-oxo-hexahydro-pyrrolo[3,2-b]pyrrole-1-yl]-2-oxo-ethyl}-benzamide] | < 5 | – | – | –
– | CC(C)C[C@H](NC(=O)c1ccc(N(C)C)cc1)C(=O)N1CC[C@@H]2[C@H]1C(=O)CN2C(=O)c1cccc(Cl)c1 [Example 73, (3aR,6aS)-N-{(1S)-1-[4-(3-Chloro-benzoyl)-6-oxo-hexahydro-pyrrolo[3,2-b]pyrrole-1-carbonyl]-3-methyl-butyl}-4-dimethylamino-benzamide] | < 5 | < 5 | < 5 | < 5
< 5 | O=C(N[C@@H](Cc1ccc(O)cc1)C(=O)N1CC[C@@H]2[C@H]1C(=O)CN2C(=O)c1ccccc1)c1ccc2ncsc2c1 [Example 317, (3aR,6aS)-Benzothiazole-6-carboxylic acid [(1S)-2-(4-benzoyl-6-oxo-hexahydro-pyrrolo[3,2-b]pyrrole-1-yl)-1-(4-hydroxy-benzyl)-2-oxo-ethyl]-amide] | < 5 | – | – | –
– | O=C(N[C@@H](CC1CCCCC1)C(=O)N1CC[C@@H]2[C@H]1C(=O)CN2C(=O)c1ccccc1)c1ccc2ncsc2c1 [Example 286, (3aR,6aS)-Benzothiazole-6-carboxylic acid [(1S)-2-(4-benzoyl-6-oxo-hexahydro-pyrrolo[3,2-b]pyrrole-1-yl)-1-cyclohexylmethyl-2-oxo-ethyl]-amide] | < 5 | < 5 | < 5 | < 5
< 5 | CC(C)C[C@H](NC(=O)c1cccc(CN)c1)C(=O)N1CC[C@@H]2[C@H]1C(=O)CN2S(=O)(=O)c1ccccc1 [Example 123, (3aR,6aS)-3-Aminomethyl-N-[(1S)-1-(4-benzenesulfonyl-6-oxo-hexahydro-pyrrolo[3,2-b]pyrrole-1-carbonyl)-3-methyl-butyl]-benzamide] | – | – | – | –
– | CC(C)C[C@H](NC(=O)c1ccc(C(C)(C)C)cc1)C(=O)N1CC[C@@H]2[C@H]1C(=O)CN2C(=O)c1ccc(-c2ccccc2)s1 [Example 28, (3aR,6aS)-4-tert-Butyl-N-{(1S)-3-methyl-1-[6-oxo-4-(5-phenyl-thiophene-2-carbonyl)-hexahydro-pyrrolo[3,2-b]pyrrole-1-carbonyl]-butyl}-benzamide] | < 5 | < 5 | < 5 | < 5
< 5 | O=C(N[C@@H](Cc1ccc(O)cc1)C(=O)N1CC[C@@H]2[C@H]1C(=O)CN2C(=O)c1ccccc1)c1cccc(F)c1 [Example 335, (3aR,6aS)-N-[(1S)-2-(4-Benzoyl-6-oxo-hexahydro-pyrrolo[3,2-b]pyrrol-1-yl)-1-(4-hydroxy-benzyl)-2-oxo-ethyl]-3-fluoro-benzamide] | < 5 | – | – | –
< 5 | O=C(N[C@@H](CC1CC1)C(=O)N1CC[C@@H]2[C@H]1C(=O)CN2C(=O)c1ccccc1)c1ccsc1 [Example 187, (3aR,6aS)-Thiophene-3-carboxylic acid [(1S)-2-(4-benzoyl-6-oxo-hexahydro-pyrrolo[3,2-b]pyrrole-1-yl)-1-cyclopropylmethyl-2-oxo-ethyl]-amide] | – | – | – | –
< 5 | CC(C)C[C@H](NC(=O)c1cnc2ccccc2n1)C(=O)N1CC[C@@H]2[C@H]1C(=O)CN2C(=O)c1cccnc1 [Example 19, (3aR,6aS)-Quinoxaline-2-carboxylic acid {(1S)-3-methyl-1-[6-oxo-4-(pyridine-3-carbonyl)-hexahydro-pyrrolo[3,2-b]pyrrole-1-carbonyl]-butyl}-amide] | < 5 | – | – | –
– | CC(C)C[C@H](NC(=O)c1ccc(N(C)C)cc1)C(=O)N1CC[C@@H]2[C@H]1C(=O)CN2C(=O)C1CCCCC1 [Example 104, (3aR,6aS)-N-[(1S)-1-(4-Cyclohexanecarbonyl-6-oxo-hexahydro-pyrrolo[3,2-b]pyrrole-1-carbonyl)-3-methyl-butyl]-4-dimethylamino-benzamide] | < 5 | < 5 | < 5 | < 5

Structure (SMILES) | Ki [2] [µM] | Ki [1] [µM] | Ki [3] [µM] | Ki [4] [µM] | Ki [5] [µM]
CC(C)C[C@H](NC(=O)c1cccc(Oc2ccccc2)c1)C(=O)N1CC[C@@H]2[C@H]1C(=O)CN2C(=O)c1ccccc1 [Example 13, (3aR,6aS)-N-[(1S)-1-(4-Benzoyl-6-oxo-hexahydro-pyrrolo[3,2-b]pyrrole-1-carbonyl)-3-methyl-butyl]-3-phenoxy-benzamide] | < 5 | < 5 | – | < 5 | –
CC(C)C[C@H](NC(=O)c1cccc(Oc2ccccc2)c1)C(=O)N1CC[C@@H]2[C@H]1C(=O)CN2C(=O)c1cccnc1 [Example 20, (3aR,6aS)-N-{(1S)-3-Methyl-1-[6-oxo-4-(pyridine-3-carbonyl)-hexahydro-pyrrolo[3,2-b]pyrrole-1-carbonyl]-butyl}-3-phenoxy-benzamide] | < 5 | < 5 | – | < 5 | –
